Test results published in article PMC9697519, “New Theonellapeptolides from Indonesian Marine Sponge Theonella swinhoei as Anti-Austerity Agents” (Marine Drugs, 2022).
Like-named read-outs stand apart in the source and are kept apart here. *1 amine or outer side, *2 acyl side, *3 side chain or, on linkers, in order; H or OH if unused. Where a SMILES comes first, the peptide text is derived from it. Bridges are numbered along the chain shown (N, C = ends). [ ]: non-standard residue; d: D form. The star is where a group is joined. dNMeaIle = CC[C@H](C)[C@@H](NC)C(=O)O; d(aIle) = CC[C@H](C)[C@@H](N)C(=O)O; NMeI = CC[C@H](C)[C@H](NC)C(=O)O; NMeβAla = CN(CCC(=O)[*:2])[*:1]; dNMeL = CN[C@H](CC(C)C)C(=O)O; dNMeV = CN[C@@H](C(=O)O)C(C)C; NMeV = CN[C@H](C(=O)O)C(C)C; Methoxyacetyl = COCC(=O)*; NMeA = CN[C@@H](C)C(=O)O; βAla = NCCC(=O)O

What was measured:
[1] = tested on: MCF-7 (human breast cancer cells); details: 24 h
Procedure: (§1) Finally, the anti-austerity activity on two other different cancer cell lines was studied. Preferential cytotoxicity was assessed in a nutrient-deprived medium. Esumi et al. hypothesized that tolerance to nutrient deprivation as well as angiogenesis might be an important factor in tumor progression under hypovascular condition.
(§2) Briefly, MIA PaCa-2, HepG2 and MCF-7 Cells (2 × 10^4 cells/well) were seeded in 96-well plates and incubated in fresh DMEM. The cells were washed with Dulbecco’s phosphate-buffered saline (PBS) before the medium was replaced with DMEM or NDM containing serial dilutions of the test samples. After 24 h of incubation, the cells were washed with PBS, and 100 μL of DMEM containing 10% WST-8 cell counting kit solution was added to each well. After 3 h of incubation, the absorbance was measured at 450 nm. Cell viability was calculated from the mean values for three wells. The preferential cytotoxicity was expressed as the concentration at which 50% of cells died preferentially in NDM (PC50).

[2] = tested on: HepG2 (human liver cancer cells); details: 24 h
Procedure: as §1, §2

[3] = tested on: human pancreatic cancer cell line MIA PaCa-2; details: 24 h
Procedure: Data are presented as preferential cytotoxicity (PC50) values, which represent the concentration that kills 50% of cancer cells in a nutrient-deprived medium (NDM) without any toxicity in a nutrient-rich medium DMEM (Dulbecco’s Modified Eagle Medium).
as §2
Pancreatic cancer cells (MIA PaCa-2 cells) were kindly provided by Dr. Suresh Awale, an Associate Professor at Institute of Natural Medicine, University Toyama, Toyama, Japan. MIA PaCa-2 (RBRC-RCB2094), human pancreatic cancer cell lines were purchased from Riken BRC cell bank.

[4] = tested on: Bacillus cereus NBRC 15305
Procedure: (§3) Previously, three theonellapeptolide members capped with a unique acyl group at their N-termini such as methylsulfinylacetyl, methylsulfanylacetyl, and acetyl were isolated by Tsuda et al. from Okinawan marine sponge Theonella sp.. Furthermore, the antibacterial activity of these variants was evaluated against four bacterial and six fungal strains. […] To the best of our knowledge, there is no report on the antibacterial activity of theonellapeptolides with methoxyacetyl group. This encouraged us to investigate the antibacterial activity of 1–6 against the Gram-negative bacterium Escherichia coli JW5503 and the Gram-positive bacteria Bacillus cereus NBRC 15305 and Kocuria rhizophila NBRC 12708.
(§4) After incubation for 22 h (30 °C), the obtained optical density was recorded using Tecan infinite® M200 plate reader at 600 nm to determine percent growth inhibition.

[5] = tested on: Kocuria rhizophila NBRC 12708
Procedure: as §3, §4

Escherichia coli JW5503 = tested on: Escherichia coli JW5503
Procedure: as §3, §4

[6] = read-out: IC50 in DMEM, MCF7, nutrient-rich DMEM, WST-8, absorbance 450 nm, mean of three wells
[7] = read-out: PC50 in NDM, MCF7, preferential cytotoxicity, nutrient-deprived medium (NDM), WST-8, mean of three wells
[8] = read-out: IC50 in DMEM, HepG2, nutrient-rich DMEM, WST-8, absorbance 450 nm, mean of three wells
[9] = read-out: PC50 in NDM, HepG2, preferential cytotoxicity, nutrient-deprived medium (NDM), WST-8, mean of three wells
[10] = read-out: IC50 in DMEM, MIA PaCa-2, nutrient-rich DMEM, WST-8, absorbance 450 nm, mean of three wells
[11] = read-out: PC50 in NDM, MIA PaCa-2, preferential cytotoxicity, nutrient-deprived medium (NDM), WST-8, mean of three wells
[12] = Escherichia coli JW5503, 96-well microbroth dilution (CLSI), triplicate, 22 h, 30 °C, OD 600 nm
[13] = Bacillus cereus NBRC 15305, 96-well microbroth dilution (CLSI), triplicate, 22 h, 30 °C, OD 600 nm
[14] = Kocuria rhizophila NBRC 12708, 96-well microbroth dilution (CLSI), triplicate, 22 h, 30 °C, OD 600 nm

Compound | IC50 [1, 6] [µM] | IC50 [1, 7] [µM] | IC50 [2, 8] [µM] | IC50 [2, 9] [µM] | IC50 [3, 10] [µM] | IC50 [3, 11] [µM] | MIC, BC ([4]; NBRC 15305, 22 h) [µM] | MIC, KR ([5]; NBRC 12708, 22 h) [µM] | MIC, EC (Escherichia coli JW5503; [12]) [µM] | MIC, BC [4, 13] [µM] | MIC, KR [5, 14] [µM] | MIC, EC (Escherichia coli JW5503; JW5503, 22 h) [µM]
CC[C@H](C)[C@H]1NC(=O)CCNC(=O)[C@@H](C(C)C)N(C)C(=O)[C@@H](CC(C)C)NC(=O)CCNC(=O)[C@@H](NC(=O)[C@@H](CC(C)C)N(C)C(=O)[C@@H](NC(=O)COC)C(C)C)[C@@H](C)OC(=O)[C@@H]([C@@H](C)CC)N(C)C(=O)[C@@H](CC(C)C)NC(=O)CCNC(=O)[C@H](C)NC(=O)[C@H](C(C)C)N(C)C1=O [Compound 1, theonellapeptolide IIb] (Methoxyacetyl-V[dNMeL]T[βAla][dL][dNMeV][βAla][d(aIle)][NMeV]A[βAla][dL][dNMeaIle]; ester 3-C) | > 100 | > 100 | > 100 | > 100 | > 100 | 42.8 | > 66 | > 66 | > 66 | – | – | –
CC[C@H](C)[C@H]1NC(=O)CCNC(=O)[C@@H](C(C)C)NC(=O)[C@@H](CC(C)C)NC(=O)CCNC(=O)[C@@H](NC(=O)[C@@H](CC(C)C)N(C)C(=O)[C@@H](NC(=O)COC)C(C)C)[C@@H](C)OC(=O)[C@@H]([C@@H](C)CC)N(C)C(=O)[C@@H](CC(C)C)NC(=O)CCNC(=O)[C@H](C)NC(=O)[C@H](C(C)C)N(C)C1=O [Compound 2, theonellapeptolide IIa] (Methoxyacetyl-V[dNMeL]T[βAla][dL][dV][βAla][d(aIle)][NMeV]A[βAla][dL][dNMeaIle]; ester 3-C) | > 100 | > 100 | > 100 | > 100 | > 100 | 33.4 | – | – | > 66 | > 66 | > 66 | –
CC[C@H](C)[C@H]1NC(=O)CCNC(=O)[C@H](C(C)C)N(C)C(=O)[C@@H](CC(C)C)NC(=O)CCN(C)C(=O)[C@@H](NC(=O)[C@@H](CC(C)C)N(C)C(=O)[C@@H](NC(=O)COC)C(C)C)[C@@H](C)OC(=O)[C@@H]([C@@H](C)CC)N(C)C(=O)[C@@H](CC(C)C)NC(=O)CCNC(=O)[C@H](C)NC(=O)[C@H](C(C)C)N(C)C1=O [Compound 3, theonellapeptolide IIc] (Methoxyacetyl-V[dNMeL]T[NMeβAla][dL][NMeV][βAla][d(aIle)][NMeV]A[βAla][dL][dNMeaIle]; ester 3-C) | > 100 | > 100 | > 100 | > 100 | 73.2 | 10 | – | – | > 66 | > 66 | > 66 | –
CC[C@H](C)[C@H]1C(=O)NCCC(=O)N[C@H]([C@@H](C)CC)C(=O)N(C)[C@@H](C(C)C)C(=O)N[C@@H](C)C(=O)NCCC(=O)N[C@H](CC(C)C)C(=O)N(C)[C@H]([C@@H](C)CC)C(=O)O[C@H](C)[C@H](NC(=O)[C@@H](CC(C)C)N(C)C(=O)[C@@H](NC(=O)COC)C(C)C)C(=O)N(C)CCC(=O)N[C@H](CC(C)C)C(=O)N1C [Compound 5, theonellapeptolide IIe] (Methoxyacetyl-V[dNMeL]T[NMeβAla][dL][NMeI][βAla][d(aIle)][NMeV]A[βAla][dL][dNMeaIle]; ester 3-C) | > 100 | > 100 | > 100 | > 100 | 40.4 | 3.5 | > 66 | > 66 | – | – | – | > 66
CC[C@H](C)[C@H]1C(=O)NCCC(=O)N[C@H]([C@@H](C)CC)C(=O)N(C)[C@@H](C(C)C)C(=O)N(C)[C@@H](C)C(=O)NCCC(=O)N[C@H](CC(C)C)C(=O)N(C)[C@H]([C@@H](C)CC)C(=O)O[C@H](C)[C@H](NC(=O)[C@@H](CC(C)C)N(C)C(=O)[C@@H](NC(=O)COC)C(C)C)C(=O)NCCC(=O)N[C@H](CC(C)C)C(=O)N1C [Compound 6, theonellapeptolide Id] (Methoxyacetyl-V[dNMeL]T[βAla][dL][NMeI][βAla][d(aIle)][NMeV][NMeA][βAla][dL][dNMeaIle]; ester 3-C) | > 100 | > 100 | > 100 | > 100 | 42.7 | 8.2 | > 66 | > 66 | – | – | – | > 66
